# Measured values as given in patent US5017570A, “Dibenzoxazepine compounds useful in the treatment of cerebral vasospasm or its sequela” (Chugai Seiyaku Kabushiki Kaisha, priority 1986, dated 1991).
# Structures can show the parent of a compound that is named as a salt.
# What was measured:
# [1] = system: regional cerebral blood flow (r-CBF); assay: r-CBF by hydrogen clearance method in unanesthetized and unrestrained cats; assay type: in vivo, Siamese cats
# Description: The present inventors therefore employed the hydrogen clearance method wherein unanesthetized and unrestrained cats, each having a platinum electrode embedded in the cerebral cortex at four points, i.e., post. sigmoid G., post. sylvian G., mid. ecto-sylvian G. and post. suprasylvian G., and in the deeper area of the brain at three points, i.e., hippocampus, amygdala and hypothalamus, were exposed to a predetermined amount of hydrogen gas in a chamber. Using this method, the effects of compound Nos. 1 and 2 of the present invention on the regional cerebral blood flow (r-CBF) were evaluated. At the same time, analyses of blood pressure, the pH of blood, the gaseous components of the blood, and blood sugar levels were conducted with catheters being embedded in the femoral artery and vein.
# One month before the start of experiment, a platinum electrode was embedded in the cerebral cortex of Siamese cats (both female and male) at four points, i.e., post. sigmoid G., post sylvian G., mid. ecto-sylvian G. and post. suprasylvian G., and in the deeper area of the brain at three points, i.e., hippocampus, amygdala and hypothalamus, the cats being then exposed to a predetermined amount of hydrogen gas in a chamber in an unanesthetized and unrestrained state.
# In order to evaluate the effects of compound Nos. 1 and 2 of the present invention on the regional cerebral blood flow (r-CBF), a predetermined amount of each test compound was administered either perorally (p.o.) in gelatin capsules or by intravenous injection (i.v.) In the latter case, 0.2 mg/kg or 1 mg/kg (body weight) of a selected compound of the present invention was dissolved in a quantity of physiological saline equivalent to 1 ml/kg (body weight) and the total amount of their solution was injected over a period of 10 minutes in a sustained manner through a cannula attached to a vein in the upper thigh; a control (vinpocetine) in an amount equivalent to 1 mg/kg or 5 mg/kg (body weight) was dissolved in a quantity of 10% ascorbic acid equivalent to […] (body weight) and the total amount of the solution was injected over a period of 10 minutes in a sustained manner through a cannula attached to a vein in the upper thigh.
# In the r-CBF analysis, a clearance curve was obtained with a computer (Signal Processor 7T17, product of Nippon Electric Co., Ltd. and Sanei Co., Ltd.), transformed into semi-logarithmic values which were then processed by the initial slope method to calculate all the values of r-CBF. Only values having a coefficient of correlation of at least 0.9 for regression line were used as applicable data and the level of significance was determined by the paired-t test for absolute values, with the values before administration of a test compound being taken as a control. The level of significance for the control group was tested by time-series dispersion analysis.
# [2] = Experiment for acute toxicity (oral LD50); details: mouse, in vivo, 5-week old male CD-1 (ICR) mice
# Method: Nos. 1, 2, 3 and 4 of the present invention were administered orally to 5-week old male CD-1 (ICR) mice and the LD50 values (g/kg) were determined by a routine method.
# [3] = system: cyclic-GMP content in the thoracic aortae; assay: cyclic-GMP content in thoracic aorta rings by radioimmunoassay; assay type: cell-based, Sprague-Dawley male rats; details: 1×10^-6, 10^-5 or 10^-4 M, 37° C., 30 minutes
# Method: Sprague-Dawley male rats were killed by decapitation, and their thoracic aortae were rapidly removed and immersed in ice-cold Krebs-Henseleit Ringer solution. The blood vessel was cut into rings with a length of about 3 mm and the weight of each wet tissue of the rings was measured. The rings of blood vessels were incubated at 37° C. for 30 minutes in portions of Krebs-Henseleit Ringer solution containing compound No. 1 (1×10^-6, 10^-5 or 10^-4 M) and vinpocetine (10^-4 M) under an atmosphere of 95% O2 - 5% CO2. Trichloroacetic acid (6%) was then added to the solution to stop the reaction and the cyclic-GMP content was determined by radioimunoassay method (YAMASA c-GMP Assay Kit).
# basilar artery = assay: Vasorelaxation of isolated basilar artery segments; assay type: cell-based, Beagles; details: 1 × 10^-5 M; for vasorelaxating action: in words
# Method: Beagles of either sex weighing about 20 kg were anesthetized with i.v. administration of sodium […] (30 mg/kg) and were sacrificed by rapid exsanguination. After the brain was removed, the basilar artery was dissected out under magnification and was sectional in at 2- to 3-mm intervals. […] The segment was initially stretched at a tension of 400 mg for 1 hour with a force-displacement transducer (SB-1T, Nihon Kohden, Tokyo, Japan) during which time the buffer solution was changed several times. […] The total volume of agents never exceeded 25 μl or 5% of the chamber volume and experiments were done in the dark.
# [4] = Experiment for subacute toxicity (30 days oral); assay type: in vivo, male rats (F344/crj); details: deaths/animals
# Method: Compounds No. 1, IV, VI and VII were administered orally to male rats (F344/crj) at doses of […] body weight daily for 30 days and body weight gain were measured.
# [5] = i.v. over 10 minutes, 0.2 mg/kg
# [6] = minus: vasoconstriction, 0: no effect
smiles,measurement,setting,value
"COc1ccc2c(c1)Oc1ccc(C(=O)O)cc1N=C2C [1 (Na salt), sodium salt of 3-methoxy-11-methyldibenzo[b,f][1,4]oxazepin-8-carboxylic acid]",Retention time,[1]; [5],< 4 h
same,"Percent increase of r-CBF, 30 min.",[1]; [5],9.5%
same,"Percent increase of r-CBF, 60 min.",[1]; [5],13.6%
same,Retention time,"[1]; i.v. over 10 minutes, 1 mg/kg",> 4 h
same,"Percent increase of r-CBF, 30 min.","[1]; i.v. over 10 minutes, 1 mg/kg",13.3%
same,"Percent increase of r-CBF, 60 min.","[1]; i.v. over 10 minutes, 1 mg/kg",14.7%
"CCC1=Nc2cc(C(=O)O)ccc2Oc2cc(OC)ccc21 [2 (Na salt), sodium salt of 3-methoxy-11-ethyldibenzo[b,f][1,4]oxazepin-8-carboxylic acid]",Retention time,[1]; [5],> 4 h
same,"Percent increase of r-CBF, 30 min.",[1]; [5],12.1%
same,"Percent increase of r-CBF, 60 min.",[1]; [5],21.0%
same,Retention time,"[1]; i.v. over 10 minutes, 1 mg/kg",> 4 h
same,"Percent increase of r-CBF, 30 min.","[1]; i.v. over 10 minutes, 1 mg/kg",8.1%
same,"Percent increase of r-CBF, 60 min.","[1]; i.v. over 10 minutes, 1 mg/kg",10.0%
"COc1ccc2c(c1)Oc1ccc(C(=O)O)cc1N=C2C [Compound No. 1, 3-methoxy-11-methyldibenzo[b,f][1,4]oxazepin-8-carboxylic acid]",Retention time,"[1]; p.o., 10 mg/kg",> 4 h
same,"Percent increase of r-CBF, 30 min.","[1]; p.o., 10 mg/kg",12.9%
same,"Percent increase of r-CBF, 60 min.","[1]; p.o., 10 mg/kg",14.4%
same,Retention time,"[1]; p.o., 20 mg/kg",> 4 h
same,"Percent increase of r-CBF, 30 min.","[1]; p.o., 20 mg/kg",11.8%
same,"Percent increase of r-CBF, 60 min.","[1]; p.o., 20 mg/kg",11.0%
same,Retention time,"[1]; p.o., 50 mg/kg",> 4 h
same,"Percent increase of r-CBF, 30 min.","[1]; p.o., 50 mg/kg",14.6%
same,"Percent increase of r-CBF, 60 min.","[1]; p.o., 50 mg/kg",10.0%
same,LD50,[2],3000 to 3500 mg/kg
same,cyclic-GMP content in the thoracic aortae,[3],increased dose-dependently
same,vasorelaxating action,basilar artery,show vasorelaxating action
same,Relative Potency (vasorelaxation),"basilar artery; No. 2 = 1.00, minus: vasoconstriction, 0: no effect",49.02
same,Vasorelaxation,basilar artery; [6],250.0 mg
CCC1=Nc2cc(C(=O)O)ccc2Oc2cc(OC)ccc21 [Compound No. 2],Retention time,"[1]; p.o., 10 mg/kg",< 2 h
same,"Percent increase of r-CBF, 30 min.","[1]; p.o., 10 mg/kg",0.99%
same,"Percent increase of r-CBF, 60 min.","[1]; p.o., 10 mg/kg",9.1%
same,Retention time,"[1]; p.o., 20 mg/kg",> 4 h
same,"Percent increase of r-CBF, 30 min.","[1]; p.o., 20 mg/kg",13.8%
same,"Percent increase of r-CBF, 60 min.","[1]; p.o., 20 mg/kg",19.6%
same,Retention time,"[1]; p.o., 50 mg/kg",> 4 h
same,"Percent increase of r-CBF, 30 min.","[1]; p.o., 50 mg/kg",28.9%
same,"Percent increase of r-CBF, 60 min.","[1]; p.o., 50 mg/kg",22.4%
same,LD50,[2],4200 to 5000 mg/kg
same,vasorelaxating action,basilar artery,show vasorelaxating action
same,Vasorelaxation,basilar artery; [6],5.1 mg
"CCC1=Nc2cc(C(=O)O)ccc2Oc2cc(O)ccc21 [No. I, reference compound]",Vasorelaxation,basilar artery; [6],-20.5 mg
"CCOC(=O)c1ccc2c(c1)N=Cc1ccc(C)cc1O2 [No. II, reference compound]",Vasorelaxation,basilar artery; [6],0 mg
"CCOC(=O)c1ccc2c(c1)N=C(c1ccccc1)c1ccc(OC)cc1O2 [No. III, reference compound]",Vasorelaxation,basilar artery; [6],0 mg
"CCOC(=O)c1ccc2c(c1)N=C(CC)c1ccc(OC)cc1O2 [No. IV, reference compound]",Vasorelaxation,basilar artery; [6],0 mg
same,death,[4]; 2000 mg/kg daily for 30 days,4/6
"CCC1Nc2cc(C(=O)O)ccc2Oc2cc(OC)ccc21 (centres unmarked) [No. V, reference compound]",Vasorelaxation,basilar artery; [6],0 mg
CCC1=Nc2cc(C(=O)O)ccc2Oc2cc(C)ccc21 [No. VII],death,[4]; 1000 mg/kg daily for 30 days,5/6
"CCOC(=O)C1=C[C@]2(CC)CCCN3CCc4c(n1c1ccccc41)[C@@H]32 [Vinpocetine, vinpocetine, reference compound]","Percent increase of r-CBF, 30 min.","[1]; i.v. over 10 minutes, 1 mg/kg",1.0%
same,"Percent increase of r-CBF, 60 min.","[1]; i.v. over 10 minutes, 1 mg/kg",< 2.3%
same,Retention time,"[1]; i.v. over 10 minutes, 5 mg/kg",< 1 h
same,"Percent increase of r-CBF, 30 min.","[1]; i.v. over 10 minutes, 5 mg/kg",-0.9%
same,"Percent increase of r-CBF, 60 min.","[1]; i.v. over 10 minutes, 5 mg/kg",8.3%
same,Retention time,"[1]; p.o., 20 mg/kg",< 1 h
same,"Percent increase of r-CBF, 30 min.","[1]; p.o., 20 mg/kg",12.3%
same,"Percent increase of r-CBF, 60 min.","[1]; p.o., 20 mg/kg",5.2%
